From patent US20220372585A1, “Sensors for Aromatic Compounds and Methods of Making and Using Same” (Washington University, priority 2021, published 2022)
“Also recorded” adds a separate entry of the source. Read-outs that look alike come from different tables or passages of the source.

Assays:
[1] = tested on: wild-type TynA and A81L FeaR; experiment: microbe, parasite or virus in culture; type: cell-based, E. coli MG1655; settings: A81L FeaR
Method: (§1) Flow cytometry was performed as previously described. […] Cytometry data was gated by forward and side scatter.

[2] = tested on: wild-type TynA with A81P FeaR; experiment: microbe, parasite or virus in culture; type: cell-based, E. coli MG1655; settings: A81P FeaR; 5 h and 24 h; FIG. 25A-B
Method: as §1

G494S TynA and A81S FeaR = type: cell-based, E. coli MG1655; settings: G494S TynA and A81S FeaR; 5 h and 24 h; FIG. 23A-B
Method: as §1

[3] = tested on: G494S TynA with wild-type FeaR; type: cell-based, E. coli MG1655; settings: G494S TynA, wild-type FeaR; 5 h and 24 h; FIG. 18A-B
Method: as §1

[4] = tested on: G494S TynA with A81T FeaR; type: cell-based, E. coli MG1655; settings: G494S*
Method: as §1

[5] = tested on: wild-type TynA with M83Q FeaR; type: cell-based, E. coli MG1655; settings: M83Q FeaR; 24 h; FIG. 28A
Method: as §1

[6] = tested on: wild-type TynA with W110S FeaR; type: cell-based, E. coli MG1655; settings: W110S FeaR; 24 h; FIG. 28C
Method: as §1

[7] = tested on: wild-type TynA with W110C FeaR; type: cell-based, E. coli MG1655; settings: W110C FeaR; 24 h; FIG. 28D
Method: as §1

[8] = tested on: G415H TynA with wild-type FeaR; type: cell-based, E. coli MG1655; settings: G415H
Method: as §1

[9] = tested on: wild-type TynA with L108T FeaR; type: cell-based, E. coli MG1655; settings: L108T FeaR; 24 h; FIG. 28B
Method: as §1

[10] = tested on: wild-type TynA with A81T FeaR; type: cell-based, E. coli MG1655; settings: wild-type TynA; 1 mM, 24 h; FIG. 21
Method: as §1

[11] = tested on: TynA-KP with FeaR-KA I109N; experiment: GFP fluorescence from PtynA-MG with TynA-KP and FeaR-KA I109N; type: cell-based, Klebsiella aerogenes
Description: FIG. 32. […] Sensor system with PtynA-MG, TynA-KP and FeaR-KA was chosen as the wild type (WT) for further directed evolution. TynA-KP was employed to reduce the possible interference from DA during evolution processes. Values and error bars are the average and standard deviation of biological triplicate, respectively.
FIG. 33A-FIG. 33B. […] The expression of PtynA-MG was regulated by the TynA-KP with FeaR-KA I109N mutant. Points represent experimental data while lines represent the fitted curves. […] Values and error bars are the average and standard deviation of biological triplicate, respectively.

TynA-FeaR system = experiment: microbe, parasite or virus in culture; settings: for EC50: read-out: KA (half maximal constant); for Fmax / Fmin / n (Hill coefficient): wild-type TynA and FeaR, pCX008, pHJY022
Method: (§2) To develop sensors for aromatic amines, the TynA-FeaR system was first characterized in EcN. A sensor plasmid was constructed, which consisted of constitutively expressed TynA and FeaR from E. coli MG1655, and a reporter plasmid, which consisted of GFP under the control of PtynA (see e.g., FIG. 3B). […] Next, the sensitivity and selectivity to different ligands was characterized.
For fluorescence-based quantification, single colonies were transferred to 5 mL LB medium (VWR, Radnor, Pa., USA) in 14 mL round bottom tubes and incubated overnight at 250 rpm and 37° C. Unless otherwise specified, experimental cultures were prepared by diluting overnight cultures 100× into 0.6 mL M9 minimal medium supplemented with 1 mM MgSO4, […]), and 2% w/v glycerol as well as the respective ligands (DA, PEA, Tyra, and Trypta) in 2 mL 96-deep well plates. Cultures were grown for 24 h at 37° C. and 250 rpm. After 5 h and 24 h of incubation, samples were obtained from the cultures for flow cytometry analysis.
(§3) Flow cytometry was performed as previously described. Culture samples were collected and diluted to a final OD600 of ˜0.005-0.01 in 200 mL filtered phosphate-buffered saline supplemented with 2 mg/ml kanamycin in 96-well assay microplates (U-bottom, REF-353910 from BD Biosciences, San Jose, Calif., USA). The fluorescence of the samples was measured using a Millipore Guava EasyCyte High Throughput flow cytometer with a 488 nm excitation laser and 512/18 nm emission filter. Cytometry data was gated by forward and side scatter. FlowJo (TreeStar Inc.) was used to obtain the arithmetic mean of the fluorescence distribution. The averages of the arithmetic means were calculated from three biological replicates. The average fluorescence of the non-fluorescent wild-type cell was subtracted from each sample to obtain the final fluorescence (au) values (Equation 2). To obtain the relative fluorescence in FIG. 6A-FIG. 6C, fluorescence values for each variant were normalized to the fluorescence of the wild-type sensor using Equation 3.
The Hill equation (Equations 4 and 5) was used to fit lines to the fluorescence data. The model was fit to the experimentally collected data by minimizing the root mean square error (RMSE; Equation 6).

FeaR (TynA inactivated) = settings: 0.5 mM, FIG. 3C
Method: as §2
For fluorescence-based quantification, single colonies were transferred to 5 mL LB medium (VWR, Radnor, Pa., USA) in 14 mL round bottom tubes and incubated overnight at 250 rpm and 37° C. […]
as §3, with “Culture samples were collected and diluted to a final OD600 of ˜0.005-0.01 in 200 mL filtered phosphate-buffered saline supplemented with 2 mg/ml kanamycin in 96-well assay microplates (U-bottom, REF-353910 from BD Biosciences, San Jose, Calif., USA).” left out, “Cytometry data was gated by forward and side scatter.” left out

For `NCCc1ccc(O)c(O)c1` [Dopamine, dopamine], the response ([1]; 5 h, FIG. 24) was “lack of response”, the response ([1]; 24 h, FIG. 5C) was “lack of response” and the response [2] was “lack of response”. The response (G494S TynA and A81S FeaR) was “lack of response”, the response [3] was “lack of response” and the response ([4]; 5 h, FIG. 17A) was “lack of response”. The response ([4]; 24 h, FIG. 4C) was “lack of response”, the response [5] was “lack of response” and the response [6] was “lack of response”. The response [7] was “lack of response”, the response ([8]; 5 h, FIG. 17B) was “lack of response” and the response ([8]; 24 h, FIG. 4D, listed as DA) was “lack of response; also recorded: minimal response”. For the same molecule, the response [9] was “lack of response”, the “effect of the A81T FeaR mutation on the response of the sensor” value [10] was “significantly reduced” and the response ([11]; FeaR-KA I109N, 5 h and 24 h, FIG. 33A-B) was “lack of response”. The induction of fluorescence ([11]; I109N variant, 0.5 mM, 24 h, FIG. 32) was “not”, the “fold increase in GFP expression” value (TynA-FeaR system; 0.5 mM, in the presence of TynA, FIG. 3C) was 410 fold and the EC50 (TynA-FeaR system; Escherichia coli, 5 h) was 28 µM. It also gave an EC50 (TynA-FeaR system; Escherichia coli, 24 h) of 68 µM, a fold induction at 1250 µM (TynA-FeaR system; Escherichia coli, read-out: fold induction of the reporter) of about 900 and an Fmax (TynA-FeaR system; FIG. 3D, 24 h induction) of 881. The Fmin (TynA-FeaR system; FIG. 3D, 24 h induction) was 0.1, the “n (Hill coefficient)” value (TynA-FeaR system; FIG. 3D, 24 h induction) was 3 and the Fmax (TynA-FeaR system; FIG. 14, 5 h induction) was 258. The Fmin (TynA-FeaR system; FIG. 14, 5 h induction) was 4.4, the “n (Hill coefficient)” value (TynA-FeaR system; FIG. 14, 5 h induction) was 1.5 and the “induction of PtynA” value (FeaR (TynA inactivated)) was “eliminated”.
